Reference: patent publication US5525604A, “4-aminopyrimidine derivatives” (Ono Pharmaceutical Co., Ltd., priority 1994, dated 1996)
pIC50: −log10 of the molar value. Structures can show the parent of a compound that is named as a salt.

Assays:
TXA2 synthetase = molecular target: T1, TXA2 synthetase (Rattus norvegicus, UniProt P49430); test: Inhibitory effect on TXA2 synthetase (TXB2 by EIA in A23187-stimulated rat whole blood); type: cell-based, rat (Male Wistar rats); details: rat heparinized whole blood, Ca ionophore A23187, TXB2 by EIA, 37° C.
T1 construct: whole blood was collected from abdominal aorta; from tissue; host or cells: heparinized whole blood of male Wistar rats (mainly platelets)
T1 sequence (P49430 1-533): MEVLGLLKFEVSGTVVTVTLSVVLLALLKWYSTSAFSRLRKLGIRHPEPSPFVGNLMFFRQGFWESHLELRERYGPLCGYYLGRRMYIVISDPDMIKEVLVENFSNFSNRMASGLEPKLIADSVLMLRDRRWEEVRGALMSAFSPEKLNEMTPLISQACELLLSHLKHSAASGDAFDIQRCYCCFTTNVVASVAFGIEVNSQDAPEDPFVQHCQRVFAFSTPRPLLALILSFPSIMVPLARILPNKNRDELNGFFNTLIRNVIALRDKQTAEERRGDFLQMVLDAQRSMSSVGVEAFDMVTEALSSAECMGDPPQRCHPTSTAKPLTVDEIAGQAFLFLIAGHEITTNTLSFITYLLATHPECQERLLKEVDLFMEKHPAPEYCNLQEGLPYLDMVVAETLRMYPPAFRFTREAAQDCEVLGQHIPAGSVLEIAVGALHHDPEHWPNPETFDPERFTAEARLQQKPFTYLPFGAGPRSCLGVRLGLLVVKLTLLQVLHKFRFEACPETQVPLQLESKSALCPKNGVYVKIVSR
Description: (2) Inhibitory effect on TXA2 synthetase
Male Wistar rats were starved overnight. 500 μL of heparinized (10 U/mL) whole blood was collected from abdominal aorta using polyethylene syringe (needle: 22 or 26 G). The blood freshly drawn from animal was preincubated with 5 μL Of test compound (concentration 10 μM) at 37° C. Five minutes later, 2.5 μL of 6 mM of Ca ionophore A23187 (final concentration of […]) was added into tube, and incubation mixture was further incubated for 15 min. The reaction was terminated by centrifugation of tubes at 12,000 rpm for 2 min. TXB2 content in the supernatant was determined by EIA as follows.
1 mL of 0.5M glycine-HCl buffer (pH 3.2) was added to 100 μL of sample. The samples were mixed well and centrifuged at 1,700 G for 10 min. at 4° C. The extracted supernatant was applied to a SEP-PAK (registered Trade Mark) C18 cartridge (Waters Assoc.). After washing with 10 mL of distilled water followed by 10 mL each of 15% ethanol and petroleum ether, the sample was eluted with 3 mL of ethyl acetate. The ethyl acetate fraction was evaporated to dryness under gentle N2 stream and the residue was dissolved in EIA buffer (final volume of 1 mL) following the addition of […] of 0.01M NaHCO3-NaOH buffer (pH 10.0). EIA for TXB2 was carried out according to a legend attached to the kit (Chyman Chemical Co., inc.) and calculated inhibition percent. Overall recovery of TXB2 in this extraction procedure was 90%..

cGMP-PDE = cGMP-PDE (Homo sapiens, UniProt O76074); test: Inhibitory effect on cGMP-PDE (PDE IC isolated from human platelets, 3H-cGMP substrate); type: biochemical; details: 0.2 μM 3H-cGMP, pH 8.0, 2.5% DMSO

Work on `c1ccc(CONc2nc(-n3ccnc3)ncc2-c2cccs2)cc1` [1(y), 2-(1-Imidazolyl)-5-(2-thienyl)-4-phenylmethoxyaminopyrimidine hydrochloride] yielded an inhibition at 10 µM (TXA2 synthetase) of 89% and a pIC50 (cGMP-PDE) of 5.57.

In the case of `COc1ccc(Cc2cnc(-n3ccnc3)nc2NCc2ccccc2)cc1` [1(j), 2-(1-Imidazolyl)-5-(4-methoxyphenyl)methyl-4-phenylmethylaminopyrimidine], the inhibition at 10 µM (TXA2 synthetase) was 94% and the pIC50 (cGMP-PDE) was 6.11.

Molecule `Cc1nc(-n2ccnc2)nc(NCc2ccccc2)c1C` [1(f), 2-(1-Imidazolyl)-5,6-dimethyl-4-phenylmethylaminopyrimidine] has a pIC50 (cGMP-PDE) of 5.44.

In the case of `c1ccc(CNc2nc(-n3ccnc3)ncc2COc2ccccc2)cc1` [1(k), 2-(1-Imidazolyl)-5-phenoxymethyl-4-phenylmethylaminopyrimidine dihydrochloride], the pIC50 (cGMP-PDE) was 6.12.

With `c1ccc(CNc2ccnc(-n3ccnc3)n2)cc1` [1(a), 2-(1-Imidazolyl)-4-phenylmethylaminopyrimidine] the pIC50 (cGMP-PDE) was 4.42.

`COc1ccc(Cc2cnc(-n3ccnc3)nc2NCCOCCO)cc1` [1(h), 2-(1-Imidazolyl)-5-(4-methoxyphenyl)methyl-4-[2-(2-hydroxyethoxy)ethyl]aminopyrimidine] was tested, and the inhibition at 10 µM (TXA2 synthetase) was 99% and the pIC50 (cGMP-PDE) was 6.15.

With `COCCNc1nc(-n2ccnc2)ncc1-c1cccs1` [1(x), 2-(1-Imidazolyl)-5-(2-thienyl)-4-(2-methoxyethyl)aminopyrimidine hydrochloride] the inhibition at 10 µM (TXA2 synthetase) was 87% and the pIC50 (cGMP-PDE) was 5.22.

`COc1cccc(Cc2cnc(-n3ccnc3)nc2NCCOCCO)c1` [Example 1, 2-(1-Imidazolyl)-4-[2-(2-hydroxyethoxy)ethyl]amino-5-(3-methoxyphenyl)methylpyrimidine] gave a pIC50 (cGMP-PDE) of 4.68.

For `c1ccc(CNc2nc(-n3ccnc3)ncc2-c2nccs2)cc1` [1(o), 2-(1-Imidazolyl)-5-(2-thiazolyl)-4-phenylmethylaminopyrimidine hydrochloride], the inhibition at 10 µM (TXA2 synthetase) was 65% and the pIC50 (cGMP-PDE) was 6.92.

`c1csc(-c2cnc(-n3ccnc3)nc2NCc2ccc3c(c2)OCO3)c1` [1(p), 2-(1-Imidazolyl)-5-(2-thienyl)-4-(1,3-dioxaindan-5-yl)methylaminopyrimidine hydrochloride] was tested, and the inhibition at 10 µM (TXA2 synthetase) was 90% and the pIC50 (cGMP-PDE) was 7.60.

Work on `c1cncc(CNc2nc(-n3ccnc3)ncc2-c2cccs2)c1` [1(w), 2-(1-Imidazolyl)-5-(2-thienyl)-4-(3-pyridyl)methylaminopyrimidine dihydrochloride] yielded an inhibition at 10 µM (TXA2 synthetase) of 83% and a pIC50 (cGMP-PDE) of 5.70.

Molecule `c1ccc(CNc2nc(-n3ccnc3)ncc2Cc2ccccc2)cc1` [1(d), 2-(1-Imidazolyl)-5-phenylmethyl-4-phenylmethylaminopyrimidine] has a pIC50 (cGMP-PDE) of 6.00.

With `CCc1cnc(-n2ccnc2)nc1NCc1ccccc1` [1(c), 2-(1-Imidazolyl)-5-ethyl-4-phenylmethylaminopyrimidine] the pIC50 (cGMP-PDE) was 5.60.

`Cc1cnc(-n2ccnc2)nc1NCc1ccccc1` [1(e), 2-(1-Imidazolyl)-5-methyl-4-phenylmethylaminopyrimidine] showed a pIC50 (cGMP-PDE) of 4.74.

`c1csc(-c2cnc(-n3ccnc3)nc2NCc2cccc3ccccc23)c1` [1(r), 2-(1-Imidazolyl)-5-(2-thienyl)-4-(1-naphthyl)methylaminopyrimidine] gave a pIC50 (cGMP-PDE) of 6.46.

In the case of `Clc1ccc(CNc2nc(-n3ccnc3)ncc2-c2cccs2)cc1` [1(z), 2-(1-Imidazolyl)-5-(2-thienyl)-4-(4-chlorophenyl)methylaminopyrimidine hydrochloride], the pIC50 (cGMP-PDE) was 7.21.

Molecule `COc1cccc(CNc2nc(-n3ccnc3)ncc2-c2cccs2)c1` [1(t), 2-(1-Imidazolyl)-5-(2-thienyl)-4-(3-methoxyphenyl)methylaminopyrimidine hydrochloride] has an inhibition at 10 µM (TXA2 synthetase) of 100% and a pIC50 (cGMP-PDE) of 6.64.

`c1csc(CNc2nc(-n3ccnc3)ncc2-c2cccs2)c1` [1(v), 2-(1-Imidazolyl)-5-(2-thienyl)-4-(2-thienyl)methylaminopyrimidine hydrochloride] gave an inhibition at 10 µM (TXA2 synthetase) of 100% and a pIC50 (cGMP-PDE) of 6.51.

`c1coc(CNc2nc(-n3ccnc3)ncc2-c2cccs2)c1` [1(u), 2-(1-Imidazolyl)-5-(2-thienyl)-4-(2-furyl)methylaminopyrimidine hydrochloride] gave an inhibition at 10 µM (TXA2 synthetase) of 96% and a pIC50 (cGMP-PDE) of 6.00.

Molecule `c1cncc(-c2ncc(-c3cccs3)c(NCc3ccc4c(c3)OCO4)n2)c1` [Example 2, 2-(3-Pyridyl)-5-(2-thienyl)-4-(1,3-dioxaindan-5-yl)methylaminopyrimidine hydrochloride] has an inhibition at 10 µM (TXA2 synthetase) of 75%.

Molecule `COCCNc1nc(-n2ccnc2)ncc1Cc1ccc(OC)cc1` [1(i), 2-(1-Imidazolyl)-5-(4-methoxyphenyl)methyl-4-(2-methoxyethyl)aminopyrimidine] has a pIC50 (cGMP-PDE) of 5.46.

`COCCNc1nc(-n2ccnc2)ncc1Cc1cccc(OC)c1` [1(g), 2-(1-Imidazolyl)-5-(3-methoxyphenyl)methyl-4-(2-methoxyethyl)aminopyrimidine] gave a pIC50 (cGMP-PDE) of 5.42.

`c1ccc(CNc2nc(-n3ccnc3)ncc2-c2cccs2)cc1` [1(n), 2-(1-Imidazolyl)-5-(2-thienyl)-4-phenylmethylaminopyrimidine hydrochloride] showed an inhibition at 10 µM (TXA2 synthetase) of 90%.

`OCCOCCNc1nc(-n2ccnc2)ncc1-c1cccs1` [1(q), 2-(1-Imidazolyl)-5-(2-thienyl)-4-[2-(2-hydroxyethoxy)ethyl]aminopyrimidine hydrochloride] gave an inhibition at 10 µM (TXA2 synthetase) of 100% and a pIC50 (cGMP-PDE) of 4.90.

`c1ccc(CNc2nc(-n3ccnc3)ncc2Cn2ccnc2)cc1` [1(l), 2-(1-Imidazolyl)-5-(1-imidazolyl)methyl-4-phenylmethylaminopyrimidine] showed an inhibition at 10 µM (TXA2 synthetase) of 63% and a pIC50 (cGMP-PDE) of 4.46.

`C=C(Cl)c1cnc(-n2ccnc2)nc1NCc1ccccc1` [1(m), 2-(1-Imidazolyl)-5-(1-chlorovinyl)-4-phenylmethylaminopyrimidine hydrochloride] showed a pIC50 (cGMP-PDE) of 5.90.

Molecule `c1ccc(-c2cnc(-n3ccnc3)nc2NCc2ccc3c(c2)OCO3)cc1` [1(bb)] has an inhibition at 10 µM (TXA2 synthetase) of 90% and a pIC50 (cGMP-PDE) of 7.85.
